Results on two compounds are retold here after patent US20100247659A1, “PHENYLPHTHALIMIDE ANALOGS FOR TREATING DIABETIC MACULAR EDEMA” (Charlesson, LLC, priority 2007, published 2010).

For experiment [1], the system named is CAM blood vessel formation induced by VEGF/bFGF. The experiment is described as follows: Chicken chorioallantoic membrane (CAM) assay. The class given is in vivo. Conditions: 200 ng VEGF-165/bFGF, 48 hr. As to the method:
Chicken chorioallantoic membrane (CAM) assay: The fertile Leghorn chicken eggs were incubated in a humidified environment at 37.5° C. for 10 days. […] Anti-angiogenic compounds were then added 8 hr after the VEGF/bFGF at saturation to the same microbial testing disk, and the embryos were incubated for an additional 40 h. CAMs were then removed, quickly fixed with 4% paraformaldehyde in PBS, placed onto Petri dishes, and digitized images taken at 7.5× using a Nikon dissecting microscope and Scion Imaging system. A 1×1-cm grid was then added to the digital CAM images and the average number of vessels within 5-7 grids counted as a measure of vascularity.
CAM assay was used for in vivo anti-angiogenic studies. The fertile leghorn chicken eggs were allowed to incubate in a humidified environment at 37.5° C. for 10 days. […] Anti-angiogenic compounds were then added 8 hours after the VEGF/bFGF at saturation to the same microbial testing disk and embryos allowed to incubate for an additional 40 hours. After 48 hr, CAMs were removed, quickly fixed with 4% paraformaldehyde in PBS, placed onto Petri dishes, and digitized images taken at 7.5× using a Nikon dissecting microscope and Scion Imaging system. A 1×1-cm grid was then added to the digital CAM images and the average number of vessels within 5-7 grids counted as a measure of vascularity.
FIG. 14 is a table comparing the effect of Compound 4 on blood vessel formation. […] Data represent mean±SD of 8-16 samples from 2-3 separate experiments.

Experiment [2] relates to HUVEC. The experiment is described as follows: Endothelial cell migration (invasion) assay. The class given is cell-based. The note with it: Homo sapiens, VEGF 4 ng/ml, invasion through Matrigel, read-out: IC50, inhibition of HUVEC migration.
Procedure: Cells were allowed to invade for 22±1 hours. Cells were labeled post invasion with Calcein AM (4 μg/ml) and measured by detecting the fluorescence of cells that invaded through the BD Matrigel™ Matrix with an Applied Biosystems CytoFluor® 4000 plate reader at 485 nm excitation and 530 nm emission.
In this assay system, human endothelial cells are allowed to invade and are then labeled with fluorescent dye Calcein AM before quantification on a fluorometer.
In FIG. 2B, cells were seeded at 5×10^4/insert in EBM-2 containing 0.1% BSA in multi-well inserts. The assembled assays were allowed to proceed for 6 hours. The results are expressed as percent inhibition of migration as compared to control (no inhibitor). Data represents the average of 3 experiments, each run in triplicate. The bars represent mean±SD.
Another experiment deals with BRCEC. The experiment is described as follows: MTT cell proliferation assay, BRCEC. Conditions: Bos taurus, 72 h, treated 3 days, read-out: IC50, inhibition of proliferation of BRCEC. The class given is cell-based, bovine. An excerpt:
(§1) Cell culture: All cell culture media and supplements were purchased from Cellgro unless otherwise indicated. Human Umbilical Vein Endothelial Cells (HUVEC) were obtained from American Type Culture Collection and grown in the EBM-MV2 medium (Clonetics). Bovine Retinal Endothelial Cells (BREC) and pericytes were isolated according to a modified method as described previously (Wong, et al. Investig. Opthalmol. Vis. Sci. 1987, 28: 1767-1775). Twelve bovine eyes were obtained from a local slaughterhouse (Country Home Meats). The retinas were removed and washed four times in DMEM. Subsequently retinas were homogenized and centrifuged at 400×g for 10 min. The resultant pellet was resuspended in an isolation medium (DMEM with 100 IU/ml penicillin, 100 μg/ml streptomycin and 250 ng/ml amphotericin). Microvessels were trapped on an 85 μm nylon mesh (Locker Wire Weavers LTD) and transferred to a petri dish (Falcon) containing 10 ml of an enzyme cocktail which consisted of 600 μg/ml DNase I (Sigma), 165 μg/ml collagenase (Sigma) and 700 μg/ml Pronase E (EMD) and were incubated at 37° C. for 20 min. The resultant vessel fragments were trapped on a 53 μm nylon mesh (Locker Wire Weavers LTD), washed with the isolation medium and centrifuged at 400×g for 5 min. For selective culture of pericytes, the resultant pellet was resuspended in 10 ml of the pericyte growth medium and transferred into 75-cm^2 plastic tissue culture flasks (BD Biosciences). For selective culture of BRCECs, the resultant pellet was resuspended in 10 ml of the BRCEC growth medium and transferred into 75-cm^2 collagen-coated plastic tissue culture flasks (BD Biosciences). The BRCEC growth medium consisted of DMEM supplemented with 10% human serum, 1% glutamine, 1 mg/ml insulin, 550 μg/ml transferring, 670 ng/ml selenium, 100 IU/ml penicillin, 100 μg/ml streptomycin, 250 ng/ml amphotericin, 90 μg/ml heparin (Sigma) and 15 μg/ml endothelial cell growth supplement (Upstate). Cells were cultured at 37° C. and 5% CO2 with regular medium change every 3 days. Confluence cultures were passaged by detaching the cells with 0.25% trypsin and plated at a split 1:3. […] At passage 2, BRCECs and pericytes were stored in a liquid nitrogen tank for future use.
MTT assay: Cells were seeded at a density of 5×10^4 cells per well in 400 μl of growth medium in triplicate in 24-well plates (Nalge Nunc) or gelatin-coated 24-well plates. […] The absorbance of the formazen product was measured at a wavelength of 570 nm, with 750 nm as the (subtracted) reference wavelength.
Primary endothelial cells (HUVEC and BRCEC) and pericytes were treated with various concentrations of the compounds for 3 days. Viable cells were quantified using MTT assay and IC50 of each compound was calculated (mean±SD, n=3, FIG. 1). […]

Experiment [3] has as its system STZ-diabetic rats. The experiment in a line: Retinal vascular leakage in STZ-diabetic rats, intravitreal injection. The class given is in vivo, rat. Conditions: for reduction of retinal vascular leakage vs vehicle control: single intravitreal 1.0 μg/eye (5 μl 0.8 mM), 48 h; for reduction of retinal vascular permeability: two days.
Procedure: Induction of diabetes by streptozotocin (STZ): BN rats (8 weeks of age) were given a single intraperitoneal injection of fresh made streptozotocin (STZ) (Sigma, 50 mg/kg in 10 mM of citrate buffer, pH 4.5) following an overnight fasting. Control rats received an injection of citrate buffer alone. Blood glucose levels were checked at 24 hours following the last STZ injection and once a week thereafter, and only the animals with glucose levels higher than 350 mg/dl were considered diabetic. Rats with hyperglycemia for 2 weeks were used for these experiments.
(§2) Intravitreal injection of compounds: Thalidomide and the phenylphthalimide analogs Compounds 1, 2 and Compound 4 were dissolved in vehicle (BN rat serum) and sterilized by filtration. OIR and STZ-diabetic BN rats received an intravitreal injection of 0.5-2.0 μg/eye of (5 μl/eye, 0.1-0.4 mg/ml in BN rat serum) of thalidomide, Compounds 1, 2 or Compound 4 into the right eye and the equal volume of the BN rat serum into the left eye.
Evans blue dye (Sigma) was dissolved in 0.9% saline (30 mg/ml), sonicated for 5 min and filtered through a 0.45-μm filter (Millipore). The rats were then anesthetized, and Evans blue (30 mg/kg) was injected over 10 s through the femoral vein using a glass capillary under microscopic inspection. Evans blue non-covalently binds to plasma albumin in the blood stream. Immediately after Evans blue infusion, the rats turned visibly blue, confirming their uptake and distribution of the dye. The rats were kept on a warm pad for 2 h to ensure the complete circulation of the dye. Then the chest cavity was opened, and the rats were perfused via the left ventricle with 1% paraformaldehyde in citrate buffer (pH 4.2) which was pre-warmed to 37° C. to prevent vasoconstriction. The perfusion lasted 10 min under the physiological pressure of 120 mmHg, in order to clear the dye from the vessel. Immediately after perfusion, the eyes were enucleated and the retinas were carefully dissected under an operating microscope. Evans blue dye was extracted by incubating each sample in 150 μl of formamide for 18 h at 70° C. The extract was centrifuged (Beckman) at 70,000 rpm (Rotor type: TLA 100.3) for 20 min at 4° C. Absorbance was measured using 100 μl of the supernatant at 620 nm by using Spectrophotometer DU800 (Beckman). The concentration of Evans blue in the extract was calculated from a standard curve of Evans blue in formamide and normalized by the total protein concentration in each sample. Results were expressed in mg of Evans blue per mg of total protein content.
Diabetes was induced by injection of STZ (50 mg/kg, i.v.) into adult BN rats after overnight fasting. Blood glucose levels were monitored at the second day after the injection and once a week thereafter. Rats with glucose levels above 350 mg/dl were considered as diabetic and used for the study. thalidomide, Compounds 1, 2 and 4 were separately injected into the vitreous space (5 μl, 0.8 mM in BN rat serum) of the right eye of STZ-diabetic rats 2 wks after the induction of diabetes. At 48 h after the injection, retinal vascular leakage was measured using the Evans blue-albumin leakage method.
To determine the dose-response relationship of the effect of Compound 4 and thalidomide, the STZ-diabetic rats received an intravitreal injection of Compound 4 and thalidomide with doses of 0.5, 0.75 and 1.0 μg/eye (5 μl/eye of 0.10, 0.15 and 0.20 mg/ml), respectively.
In a further experiment the test system is OIR rats. The experiment is described as follows: Retinal vascular leakage in OIR rats, intravitreal injection. The class given is in vivo, rat. The note with it: for retinal vascular leakage as % of contralateral vehicle-injected eyes: intravitreal 5 μl 0.8 mM at P14, measured P16; for reduction of retinal vascular leakage vs vehicle control: single intravitreal 1.0 μg/eye (5 μl 0.8 mM) at P14, measured P16.

Experiment [4] concerns HUVEC. The experiment in a line: MTT cell proliferation assay, HUVEC. The class given is cell-based. Conditions: Homo sapiens, 72 h, treated 3 days, read-out: IC50, inhibition of proliferation of HUVEC.
From the text: as §1
MTT assay: Cells were seeded at a density of 5×10^4 cells per well in 400 μl of growth medium in triplicate in 24-well plates (Nalge Nunc) or gelatin-coated 24-well plates. Twenty-four hours after seeding, the growth medium was replaced by a medium containing 1% FBS, with or without different concentrations of thalidomide or phenylphthalimide analogs. After the cells were treated for 48-72 h, MTT was added to a final concentration of 0.5 mg of medium per ml and incubated for 4 h at 37° C. in 5% CO2. An equal volume of solubilizer buffer is then added, following the protocol recommended by the manufacturer (Roche Molecular Biochemicals), the cells will be incubated overnight at 37° C. in 5% CO2. The absorbance of the formazen product was measured at a wavelength of 570 nm, with 750 nm as the (subtracted) reference wavelength.
Primary endothelial cells (HUVEC and BRCEC) and pericytes were treated with various concentrations of the compounds for 3 days. Viable cells were quantified using MTT assay and IC50 of each compound was calculated (mean±SD, n=3, FIG. 1). The IC50 values represent the means and SE of 3 independent experiments.
For orientation: Formazan colour is commonly taken as a measure of viable cells.

In experiment [5] the test system is STZ-diabetic rats. Conditions: cited from earlier work.

From the text for OIR rats: Induction of oxygen-induced retinopathy (OIR): Induction of OIR followed the procedure as described by Smith et al (Smith, et al. Invest. Opthalmol. Vis. Sci. 1994, 35: 101-111) with some modifications. Briefly, Newborn Brown Norway (BN) rats (Charles River Laboratories) at postnatal day 7 (P7) were exposed to hyperoxia (75% O2) for 5 days (P7-12) and then returned to normoxia (room air) to induce retinopathy.
as §2
Measurement of vascular permeability: Vascular permeability was quantified by measuring leakage of FITC-albumin or Evans blue dye-albumin complex from the blood vessels into the retina as described (Xu, et al. Invest. Opthalmol. Vis. Sci. 2001, 42:789-794), with some modifications. Briefly, FITC-albumin was injected through the femoral vein and circulated for 2 h. The rats were then perfused via the left ventricle. The retinas were carefully dissected and homogenized. The concentrations of FITC-albumin were measured in a fluorometer and normalized by the total protein concentration in each retina and by plasma concentration of FITC-albumin.
To induce OIR, BN rats at postnatal day 7 (P7) were exposed to hyperoxia (75% O2) for 5 days (P7-P12) and then returned to normoxia. Normal control rats were kept in room air. At P14, the OIR BN rats received an intravitreal injection of 5 μl (0.8 mM in BN rat serum)/eye of thalidomide, Compound 1, Compound 2, or Compound 4 into the right eye and same volume of the BN rat serum into the left eye. Retinal vascular leakage was measured using FITC-labeled albumin as tracer. Normal non-OIR BN rats (n=6) served as baseline at P16.
To determine if the effect of Compound 4 on retinal vascular leakage was dose-dependent, the OIR rats at P14 received a single injection of Compound 4 with doses of 0.5, 0.75 and 1.0 μg/eye (5 μl of 0.10, 0.15 and 0.20 mg/ml).
In FIG. 7A, OIR rats received an intravitreal injection of 5 μl (0.8 mM in BN rat serum)/eye of thalidomide, Compounds 1, 2, or 4 in the right eye and the same volume of the vehicle in the left eye at P14. Vascular leakage was measured using the FITC-labeled albumin leakage method at P16 and expressed as fd/pr of protein in the retina (mean±SD, n=6). Each of the experimental group was compared with contralateral eye by Student's t test. Retinal vascular leakage in normal non-OIR rats at age of P16 were used as baseline at P16. In FIG. 7B, vascular leakage in the compound-injected eyes was expressed as a percentage of average vascular leakage in the vehicle-injected contralateral eyes. For the control, the average vascular leakage in vehicle-treated retinas was used as 100%. […] In FIGS. 7C and 7D, OIR rats received an intravitreal injection of Compound 4 or thalidomide with doses as indicated at P14. Permeability was measured at P16 and expressed as fd/pr of protein in the retina (mean±SD, n=6). Each of the experimental group was compared with the vehicle control by the paired Student's t test. “Normal” is represented as the permeability in normal rats at P16.

Regarding `CC(C)c1cccc(C(C)C)c1N1C(=O)c2ccc(N)cc2C1=O` [Compound 4], in experiment [1], the “ED50, dose reducing blood vessel number to 50% of VEGF/bFGF alone group” value was determined as 6.5 μg/embryo. Besides, the IC50 in the experiment on HUVEC [2] was less than 1000 nM; in the experiment with BRCEC, 1830 nM; with HUVEC [4], 2000 nM. The “reduction of retinal vascular leakage vs vehicle control” value with STZ-diabetic rats [3] is given as approximately 100%; with OIR rats it was 40%. The “retinal vascular leakage as % of contralateral vehicle-injected eyes” value with OIR rats came out at 61%.

`O=C1CCC(N2C(=O)c3ccccc3C2=O)C(=O)N1` (centres unmarked) [thalidomide]: in experiment [1], the “ED50, dose reducing blood vessel number to 50% of VEGF/bFGF alone group” value is reported as more than 100 μg/embryo. For the same compound, the IC50 is more than 100000 nM in the experiment with HUVEC [2], more than 32000 nM with BRCEC and more than 100000 nM with HUVEC [4]. The “VEGF in ocular fluid” value with STZ-diabetic rats [5] was “blocked the increase of VEGF in ocular fluid”. The “thickening of retinal capillary basement membrane” value in the experiment with STZ-diabetic rats [5] is listed as “inhibited the thickening of retinal capillary basement membrane”. The “reduction of retinal vascular permeability” value with STZ-diabetic rats [3] (dose of 0.5 μg/eye) is given as “not at 0.5 μg/eye”; in the experiment with STZ-diabetic rats [3] (doses of 0.75 and 1.0 μg/eye) it was “showed an inhibitory effect”. Moreover, the results for the “reduction of retinal vascular leakage vs vehicle control” value with STZ-diabetic rats [3] and with OIR rats were 77% and 18%, respectively. Also, the “reduction of retinal vascular leakage” value in the experiment with OIR rats (dose of 0.5 μg/eye) was “not at the dose of 0.5 μg/eye”; in the experiment with OIR rats (doses of 0.75 and 1.0 μg/eye) it was “significantly reduced vascular leakage”. In the experiment on OIR rats, the “retinal vascular leakage as % of contralateral vehicle-injected eyes” value turned out to be 82%.
